# Test results taken from the NIST ThermoML archive (doi:10.1021/acs.jced.8b00132).
# Several values for one entry are separate records, joined by “and”; a condition that tells them apart may be missing. Equal entries are not always repeated. ± gives the expanded uncertainty stated by the source.
# Conditions: transient hot wire
compound,measurement,setting,value
O=C(C(F)(F)C(F)(F)F)C(F)(C(F)(F)F)C(F)(F)F [dodecafluoro-2-methylpentan-3-one],thermal conductivity,"359 K, 91 kPa, Gas",0.0172 ± 0.0011 W/m/K and 0.01701 ± 0.001 W/m/K
same,thermal conductivity,"359.01 K, 17992 kPa, Liquid",0.05723 ± 0.0012 W/m/K
same,thermal conductivity,"359.02 K, 33597 kPa, Liquid",0.06346 ± 0.0013 W/m/K
same,thermal conductivity,"359.03 K, 33605 kPa, Liquid",0.06342 ± 0.0013 W/m/K
same,thermal conductivity,"359.05 K, 56095 kPa, Liquid",0.07054 ± 0.0014 W/m/K
same,thermal conductivity,"359.05 K, 56112 kPa, Liquid",0.07057 ± 0.0014 W/m/K
same,thermal conductivity,"359.07 K, 256 kPa, Gas",0.0162 ± 0.001 W/m/K
same,thermal conductivity,"359.07 K, 257 kPa, Gas",0.01618 ± 0.001 W/m/K
same,thermal conductivity,"359.07 K, 11964 kPa, Liquid",0.05443 ± 0.0011 W/m/K
same,thermal conductivity,"359.07 K, 11965 kPa, Liquid",0.05441 ± 0.0011 W/m/K
same,thermal conductivity,"359.13 K, 188 kPa, Gas",0.01636 ± 0.001 W/m/K
same,thermal conductivity,"359.13 K, 24956 kPa, Liquid",0.06016 ± 0.0012 W/m/K
same,thermal conductivity,"359.14 K, 7109 kPa, Liquid",0.05182 ± 0.0011 W/m/K
same,thermal conductivity,"359.14 K, 7110 kPa, Liquid",0.05179 ± 0.0011 W/m/K
same,thermal conductivity,"359.14 K, 24956 kPa, Liquid",0.06017 ± 0.0012 W/m/K
same,thermal conductivity,"359.14 K, 43845 kPa, Liquid",0.06681 ± 0.0014 W/m/K
same,thermal conductivity,"359.14 K, 43855 kPa, Liquid",0.06693 ± 0.0014 W/m/K
same,thermal conductivity,"359.16 K, 26 kPa, Gas",0.01687 ± 0.001 W/m/K
same,thermal conductivity,"359.16 K, 67834 kPa, Liquid",0.07385 ± 0.0015 W/m/K
same,thermal conductivity,"359.17 K, 67856 kPa, Liquid",0.07389 ± 0.0015 W/m/K
same,thermal conductivity,"359.19 K, 3417 kPa, Liquid",0.04968 ± 0.001 W/m/K
same,thermal conductivity,"359.19 K, 3419 kPa, Liquid",0.04955 ± 0.001 W/m/K
same,thermal conductivity,"359.22 K, 17993 kPa, Liquid",0.05729 ± 0.0012 W/m/K and 0.05726 ± 0.0012 W/m/K
same,thermal conductivity,"359.22 K, 33590 kPa, Liquid",0.06336 ± 0.0013 W/m/K
same,thermal conductivity,"359.23 K, 33591 kPa, Liquid",0.06345 ± 0.0013 W/m/K
same,thermal conductivity,"359.24 K, 91 kPa, Gas",0.01701 ± 0.001 W/m/K and 0.01691 ± 0.001 W/m/K
same,thermal conductivity,"359.24 K, 56073 kPa, Liquid",0.07065 ± 0.0014 W/m/K
same,thermal conductivity,"359.24 K, 56086 kPa, Liquid",0.07061 ± 0.0014 W/m/K
same,thermal conductivity,"359.27 K, 352 kPa, Liquid",0.04733 ± 0.00099 W/m/K and 0.04736 ± 0.00099 W/m/K
same,thermal conductivity,"359.28 K, 352 kPa, Liquid",0.04735 ± 0.00099 W/m/K
same,thermal conductivity,"359.29 K, 352 kPa, Liquid",0.04741 ± 0.00099 W/m/K
same,thermal conductivity,"359.29 K, 11963 kPa, Liquid",0.05419 ± 0.0011 W/m/K
same,thermal conductivity,"359.29 K, 11964 kPa, Liquid",0.05442 ± 0.0011 W/m/K
same,thermal conductivity,"359.3 K, 256 kPa, Gas",0.01611 ± 0.001 W/m/K
same,thermal conductivity,"359.31 K, 256 kPa, Gas",0.01615 ± 0.001 W/m/K
same,thermal conductivity,"359.32 K, 43840 kPa, Liquid",0.06681 ± 0.0014 W/m/K
same,thermal conductivity,"359.33 K, 24951 kPa, Liquid",0.06022 ± 0.0012 W/m/K
same,thermal conductivity,"359.34 K, 24951 kPa, Liquid",0.06017 ± 0.0012 W/m/K
same,thermal conductivity,"359.34 K, 43843 kPa, Liquid",0.06687 ± 0.0014 W/m/K
same,thermal conductivity,"359.35 K, 67807 kPa, Liquid",0.07425 ± 0.0015 W/m/K
same,thermal conductivity,"359.36 K, 7099 kPa, Liquid",0.0518 ± 0.0011 W/m/K
same,thermal conductivity,"359.36 K, 67822 kPa, Liquid",0.07392 ± 0.0015 W/m/K
same,thermal conductivity,"359.37 K, 187 kPa, Gas",0.01646 ± 0.001 W/m/K
same,thermal conductivity,"359.37 K, 7108 kPa, Liquid",0.05182 ± 0.0011 W/m/K
same,thermal conductivity,"359.38 K, 187 kPa, Gas",0.01639 ± 0.001 W/m/K
same,thermal conductivity,"359.4 K, 26 kPa, Gas",0.01671 ± 0.001 W/m/K
same,thermal conductivity,"359.41 K, 26 kPa, Gas",0.01672 ± 0.001 W/m/K
same,thermal conductivity,"359.42 K, 3418 kPa, Liquid",0.04952 ± 0.001 W/m/K
same,thermal conductivity,"359.42 K, 3419 kPa, Liquid",0.04953 ± 0.001 W/m/K
same,thermal conductivity,"359.42 K, 33575 kPa, Liquid",0.06335 ± 0.0013 W/m/K
same,thermal conductivity,"359.43 K, 33582 kPa, Liquid",0.06336 ± 0.0013 W/m/K
same,thermal conductivity,"359.43 K, 56047 kPa, Liquid",0.07056 ± 0.0014 W/m/K
same,thermal conductivity,"359.44 K, 17994 kPa, Liquid",0.05721 ± 0.0012 W/m/K
same,thermal conductivity,"359.44 K, 18001 kPa, Liquid",0.05746 ± 0.0012 W/m/K
same,thermal conductivity,"359.44 K, 56060 kPa, Liquid",0.07057 ± 0.0014 W/m/K
same,thermal conductivity,"359.5 K, 91 kPa, Gas",0.01707 ± 0.0011 W/m/K
same,thermal conductivity,"359.51 K, 91 kPa, Gas",0.017 ± 0.001 W/m/K
same,thermal conductivity,"359.51 K, 11963 kPa, Liquid",0.05441 ± 0.0011 W/m/K
same,thermal conductivity,"359.52 K, 352 kPa, Liquid",0.04737 ± 0.00099 W/m/K and 0.04738 ± 0.00099 W/m/K
same,thermal conductivity,"359.52 K, 353 kPa, Liquid",0.04735 ± 0.00099 W/m/K
same,thermal conductivity,"359.52 K, 11964 kPa, Liquid",0.05441 ± 0.0011 W/m/K
same,thermal conductivity,"359.53 K, 352 kPa, Liquid",0.04692 ± 0.00098 W/m/K
same,thermal conductivity,"359.54 K, 43829 kPa, Liquid",0.06685 ± 0.0014 W/m/K
same,thermal conductivity,"359.54 K, 43830 kPa, Liquid",0.06684 ± 0.0014 W/m/K
same,thermal conductivity,"359.55 K, 24946 kPa, Liquid",0.06014 ± 0.0012 W/m/K
same,thermal conductivity,"359.55 K, 24949 kPa, Liquid",0.06011 ± 0.0012 W/m/K
same,thermal conductivity,"359.56 K, 256 kPa, Gas",0.01628 ± 0.001 W/m/K
same,thermal conductivity,"359.57 K, 256 kPa, Gas",0.01631 ± 0.001 W/m/K
same,thermal conductivity,"359.6 K, 7096 kPa, Liquid",0.05174 ± 0.0011 W/m/K
same,thermal conductivity,"359.6 K, 7098 kPa, Liquid",0.05175 ± 0.0011 W/m/K
same,thermal conductivity,"359.63 K, 33565 kPa, Liquid",0.06333 ± 0.0013 W/m/K
same,thermal conductivity,"359.64 K, 187 kPa, Gas",0.01647 ± 0.001 W/m/K and 0.01644 ± 0.001 W/m/K
same,thermal conductivity,"359.64 K, 33572 kPa, Liquid",0.06333 ± 0.0013 W/m/K
same,thermal conductivity,"359.66 K, 18006 kPa, Liquid",0.0572 ± 0.0012 W/m/K
same,thermal conductivity,"359.67 K, 3420 kPa, Liquid",0.04948 ± 0.001 W/m/K
same,thermal conductivity,"359.67 K, 3421 kPa, Liquid",0.04951 ± 0.001 W/m/K
same,thermal conductivity,"359.67 K, 18004 kPa, Liquid",0.05719 ± 0.0012 W/m/K
same,thermal conductivity,"359.7 K, 26 kPa, Gas",0.0168 ± 0.001 W/m/K and 0.01681 ± 0.001 W/m/K
same,thermal conductivity,"359.75 K, 11967 kPa, Liquid",0.05434 ± 0.0011 W/m/K
same,thermal conductivity,"359.76 K, 11965 kPa, Liquid",0.05435 ± 0.0011 W/m/K
same,thermal conductivity,"359.77 K, 353 kPa, Liquid",0.04733 ± 0.00099 W/m/K
same,thermal conductivity,"359.78 K, 352 kPa, Liquid",0.0473 ± 0.00099 W/m/K and 0.04737 ± 0.00099 W/m/K
same,thermal conductivity,"359.78 K, 353 kPa, Liquid",0.0473 ± 0.00099 W/m/K
same,thermal conductivity,"359.78 K, 24941 kPa, Liquid",0.06008 ± 0.0012 W/m/K
